Results on one compound are retold here after patent publication US20050058695A1, “Norethindrone sustained release formulations and methods associated therewith” (Watson Pharmaccuticals, Inc., priority 2002, published 2005).

Structures are written as SMILES.

A short description of data set [1]: in situ conversion of norethindrone acetate to norethindrone in the transdermal formulation. Format: physicochemical.
The conditions of data set [2]: cited from earlier work.

As to `C#C[C@]1(OC(C)=O)CC[C@H]2[C@@H]3CCC4=CC(=O)CC[C@@H]4[C@H]3CC[C@@]21C` [NEA, norethindrone acetate], the “conversion to norethindrone in situ in the transdermal formulation” value in data set [1] is reported as “does not convert to norethindrone in situ”. In addition, the “time at which maximum skin flux for NEA is attained” value in data set [2] (FIG. 3 of U.S. Pat. No. 5,980,932) is given as “only after the second day of administration”. Also, the “time at which maximum NEA skin flux is obtained following administration” value in data set [2] (FIGS. 1 and 2 of U.S. Patent Application Publication No. 2003/0152615, in h) is reported as about 48.
